From patent publication US6982348B2, “Aminoethanol derivatives” (Takeda Pharmaceutical Company Limited, priority 2001, dated 2006)

Row | SMILES | melting point
1 | O=C(N[C@H](Cc1ccc(F)cc1)[C@@H](O)c1ccc(C(F)(F)F)cc1)C1CCCCC1 (racemic) [Example 214, N-((1RS,2SR)-1-((4-fluorophenyl)methyl)-2-hydroxy-2-(4-(trifluoromethyl)phenyl)ethyl)cyclohexanecarboxamide] | 220 to 221 °C
2 | O=C(CCCc1ccccc1)N[C@H](Cc1ccc(F)cc1)[C@@H](O)c1ccc(C(F)(F)F)cc1 (racemic) [Example 215, N-((1RS,2SR)-1-((4-fluorophenyl)methyl)-2-hydroxy-2-(4-(trifluoromethyl)phenyl)ethyl)-4-phenylbutyramide] | 155 to 156 °C
3 | CC(C)(C)OC(=O)N[C@H](Cc1cccc(OC(F)(F)C(F)F)c1)[C@@H](O)c1ccnc(F)c1 (racemic) [Example 219, 1,1-dimethylethyl(1RS,2SR)-2-(2-fluoropyridin-4-yl)-2-hydroxy-1-((3-(1,1,2,2-tetrafluoroethoxy)phenyl)methyl)ethylcarbamate] | 143 to 144 °C
4 | CC(C)(C)OC(=O)N[C@H](Cc1cccc(OC(F)(F)C(F)F)c1)[C@@H](O)c1cccc(F)n1 (racemic) [Example 221, 1,1-dimethylethyl(1RS,2RS)-2-(6-fluoropyridin-2-yl)-2-hydroxy-1-((3-(1,1,2,2-tetrafluoroethoxy)phenyl)methyl)ethylcarbamate] | 140 to 141 °C
5 | CC(C)(C)OC(=O)N[C@H](Cc1cccc(OC(F)(F)C(F)F)c1)[C@@H](O)c1ccc(F)nc1 (racemic) [Example 223, 1,1-dimethylethyl(1RS,2SR)-2-(6-fluoropyridin-3-yl)-2-hydroxy-1-((3-(1,1,2,2-tetrafluoroethoxy)phenyl)methyl)ethylcarbamate] | 128 to 129 °C
6 | O=C(N[C@H](Cc1cccc(OC(F)(F)C(F)F)c1)[C@@H](O)c1ccc(F)nc1)c1ccc(F)c2ccccc12 (racemic) [Example 224, N-((1RS,2SR)-2-(6-fluoropyridin-3-yl)-2-hydroxy-1-((3-(1,1,2,2-tetrafluoroethoxy)phenyl)methyl)ethyl)-4-fluoro-1-naphthalenecarboxamide] | 148 to 149 °C
7 | Cc1cc(C[C@@H](NC(=O)c2ccc(F)c3ccccc23)[C@@H](O)c2ccc(F)cc2)cc(OC(F)(F)C(F)F)c1 (racemic) [Example 230, N-((1RS,2SR)-2-(4-fluorophenyl)-2-hydroxy-1-((5-methyl-3-(1,1,2,2-tetrafluoroethoxy)phenyl)methyl)ethyl)-4-fluoro-1-naphthalenecarboxamide] | 189 to 190 °C
8 | Cc1ccc(C[C@@H](NC(=O)c2cccc3c2C=CCCC3)[C@@H](O)c2ccc(F)cc2)cc1OC(F)(F)C(F)F (racemic) [Example 234, N-((1RS,2SR)-2-(4-fluorophenyl)-2-hydroxy-1-((4-methyl-3-((1,1,2,2-tetrafluoroethyl)oxy)phenyl)methyl)ethyl)-6,7-dihydro-5H-benzo[a]cycloheptene-1-carboxamide] | 168 to 169 °C
9 | O=C(N[C@H](Cc1cccc(OC(F)(F)C(F)F)c1)[C@@H](O)c1cccc(F)c1)c1cccc2c1C=CCCC2 (racemic) [Example 235, N-((1RS,2SR)-2-(3-fluorophenyl)-2-hydroxy-1-[3-(1,1,2,2-tetrafluoroethoxy)benzyl]ethyl)-6,7-dihydro-5H-benzo[a][7]annulene-1-carboxamide] | 150 to 155 °C
10 | O=C(N[C@H](Cc1cccc(OC(F)(F)C(F)F)c1)[C@@H](O)c1ccc(OCc2ccccc2)cc1)c1cccc2c1C=CCCC2 (racemic) [Example 236, N-{(1RS,2SR)-2-[4-(benzyloxy)phenyl]-2-hydroxy-1-[3-(1,1,2,2-tetrafluoroethoxy)benzyl]ethyl}-6,7-dihydro-5H-benzo[a][7]annulene-1-carboxamide] | 115 to 116 °C
11 | O=C(N[C@H](Cc1cccc(OC(F)(F)C(F)F)c1)[C@@H](O)c1cccc(Cl)c1)c1cccc2c1C=CCCC2 (racemic) [Example 237, N-{(1RS,2SR)-2-(3-chlorophenyl)-2-hydroxy-1-[3-(1,1,2,2-tetrafluoroethoxy)benzyl]ethyl}-6,7-dihydro-5H-benzo[a][7]annulene-1-carboxamide] | 160 to 161 °C
12 | CC(C)(C)OC(=O)N[C@H](Cc1cccc(OC(F)(F)C(F)F)n1)[C@@H](O)c1ccc(F)cc1 (racemic) [Example 238, tert-butyl (1RS,2SR)-2-(4-fluorophenyl)-2-hydroxy-1-{[6-(1,1,2,2-tetrafluoroethoxy)pyridin-2-yl]methyl}ethylcarbamate] | 109 to 110 °C
13 | O=C(N[C@H](Cc1cccc(OC(F)(F)C(F)F)n1)[C@@H](O)c1ccc(F)cc1)c1cccc2c1C=CCCC2 (racemic) [Example 239, N-((1RS,2SR)-2-(4-fluorophenyl)-2-hydroxy-1-{[6-(1,1,2,2-tetrafluoroethoxy)pyridin-2-yl]methyl}ethyl)-6,7-dihydro-5H-benzo[a][7]annulene-1-carboxamide] | 134 to 135 °C
14 | O=C(N[C@H](Cc1cccc(OC(F)(F)C(F)F)c1)[C@@H](O)c1cccc(OCc2ccccc2)c1)c1cccc2c1C=CCCC2 (racemic) [Example 240, N-{(1RS,2SR)-2-[3-(benzyloxy)phenyl]-2-hydroxy-1-[3-(1,1,2,2-tetrafluoroethoxy)benzyl]ethyl}-6,7-dihydro-5H-benzo[a][7]annulene-1-carboxamide] | 128 to 129 °C
15 | O=C(N[C@H](Cc1cccc(OC(F)(F)C(F)F)c1)[C@@H](O)c1ccc(O)cc1)c1cccc2c1C=CCCC2 (racemic) [Example 241, N-{(1RS,2SR)-2-hydroxy-2-(4-hydroxyphenyl)-1-[3-(1,1,2,2-tetrafluoroethoxy)benzyl]ethyl}-6,7-dihydro-5H-benzo[a][7]annulene-1-carboxamide] | 167 to 168 °C
16 | COc1ccc([C@H](O)[C@@H](Cc2cccc(OC(F)(F)C(F)F)c2)NC(=O)c2cccc3c2C=CCCC3)cc1 (racemic) [Example 242, N-{(1RS,2SR)-2-hydroxy-2-(4-methoxyphenyl)-1-[3-(1,1,2,2-tetrafluoroethoxy)benzyl]ethyl}-6,7-dihydro-5H-benzo[a][7]annulene-1-carboxamide] | 151 to 152 °C
17 | CC(C)Oc1ccc([C@H](O)[C@@H](Cc2cccc(OC(F)(F)C(F)F)c2)NC(=O)c2cccc3c2C=CCCC3)cc1 (racemic) [Example 243, N-{(1RS,2SR)-2-hydroxy-2-(4-isopropoxyphenyl)-1-[3-(1,1,2,2-tetrafluoroethoxy)benzyl]ethyl}-6,7-dihydro-5H-benzo[a][7]annulene-1-carboxamide] | 134 to 135 °C
18 | CCCCOc1ccc([C@H](O)[C@@H](Cc2cccc(OC(F)(F)C(F)F)c2)NC(=O)c2cccc3c2C=CCCC3)cc1 (racemic) [Example 244, N-{(1RS,2SR)-2-(4-butoxyphenyl)-2-hydroxy-1-[3-(1,1,2,2-tetrafluoroethoxy)benzyl]ethyl}-6,7-dihydro-5H-benzo[a][7]annulene-1-carboxamide] | 126 to 127 °C
19 | O=C(N[C@H](Cc1cccc(OC(F)(F)C(F)F)c1)[C@@H](O)c1ccc(OCc2ccc(F)cc2)cc1)c1cccc2c1C=CCCC2 (racemic) [Example 245, N-{(1RS,2SR)-2-{4-[(4-fluorobenzyl)oxy]phenyl}-2-hydroxy-1-[3-(1,1,2,2-tetrafluoroethoxy)benzyl]ethyl}-6,7-dihydro-5H-benzo[a][7]annulene-1-carboxamide] | 144 to 145 °C
20 | O=C(N[C@H](Cc1cccc(OC(F)(F)C(F)F)c1)[C@@H](O)c1ccc(OCC2CCCCC2)cc1)c1cccc2c1C=CCCC2 (racemic) [Example 246, N-{(1RS,2SR)-2-[4-(cyclohexylmethoxy)phenyl]-2-hydroxy-1-[3-(1,1,2,2-tetrafluoroethoxy)benzyl]ethyl}-6,7-dihydro-5H-benzo[a][7]annulene-1-carboxamide] | 141 to 142 °C
21 | O=C(N[C@H](Cc1cccc(OC(F)(F)C(F)F)c1)[C@@H](O)c1ccc(OCCCOc2ccccc2)cc1)c1cccc2c1C=CCCC2 (racemic) [Example 247, N-{(1RS,2SR)-2-hydroxy-2-[4-(3-phenoxypropoxy)phenyl]-1-[3-(1,1,2,2-tetrafluoroethoxy)benzyl]ethyl}-6,7-dihydro-5H-benzo[a][7]annulene-1-carboxamide] | 142 to 143 °C
22 | COC(=O)c1ccc(COc2ccc([C@@H](O)[C@H](Cc3cccc(OC(F)(F)C(F)F)c3)NC(=O)c3cccc4c3C=CCCC4)cc2)cc1 (racemic) [Example 248, methyl 4-[(4-{(1RS,2SR)-2-[(6,7-dihydro-5H-benzo[a][7]annulen-1-ylcarbonyl)amino]-1-hydroxy-3-[3-(1,1,2,2-tetrafluoroethoxy)phenyl]propyl}phenoxy)methyl]benzoate] | 169 to 170 °C
23 | CC(=O)OCCOc1ccc([C@@H](O)[C@H](Cc2cccc(OC(F)(F)C(F)F)c2)NC(=O)c2cccc3c2C=CCCC3)cc1 (racemic) [Example 249, (4-{(1RS,2SR)-2-[(6,7-dihydro-5H-benzo[a][7]annulen-1-ylcarbonyl)amino]-1-hydroxy-3-[3-(1,1,2,2-tetrafluoroethoxy)phenyl]propyl}phenoxy)ethyl acetate] | 125 to 126 °C
24 | O=C(O)c1ccc(COc2ccc([C@@H](O)[C@H](Cc3cccc(OC(F)(F)C(F)F)c3)NC(=O)c3cccc4c3C=CCCC4)cc2)cc1 (racemic) [Example 250, 4-[(4-{(1RS,2SR)-2-[(6,7-dihydro-5H-benzo[a][7]annulen-1-ylcarbonyl)amino]-1-hydroxy-3-[3-(1,1,2,2-tetrafluoroethoxy)phenyl]propyl}phenoxy)methyl]benzoic acid] | 190 to 191 °C
25 | O=C(O)COc1ccc([C@@H](O)[C@H](Cc2cccc(OC(F)(F)C(F)F)c2)NC(=O)c2cccc3c2C=CCCC3)cc1 (racemic) [Example 251, (4-{(1RS,2SR)-2-[(6,7-dihydro-5H-benzo[a][7]annulen-1-ylcarbonyl)amino]-1-hydroxy-3-[3-(1,1,2,2-tetrafluoroethoxy)phenyl]propyl}phenoxy)acetic acid] | 119 to 120 °C
